Tested on: Superior cervical ganglia (SCG) neurons
Assay: Bioassay of neuronal survival in primary superior cervical ganglia neurons
Assay type: cell-based, Sprague Dawley rat
Details: primary SCG neurons from E-21 rat pups, microfluidic devices
Text: The SCG assay was adapted to compartmented cultures and updated to grow primary neurons in microfluidic devices SCG neurons were harvested from E-21 Sprague Dawley rat pups. If labeled NGF has similar bioavailability to the unlabeled NGF, i.e., TrkA binding sites remain intact. FIG. 2 (right) compares left panels of study article with right panels showing treatment with NGF only.

nerve growth factor [NGF]
neuronal survival: appear to show neuronal survival

Reference: US20240293562A1, “METHODS FOR USING NEUROTROPHIN RECEPTOR BINDING CONJUGATE COMPOSITIONS IN THE TREATMENT OF A NEUROLOGICAL CONDITION” (Manzanita Pharmaceuticals, Inc., priority 2020, published 2024)
